Source: patent publication US9980982B2, “HE4 based therapy for malignant disease” (Women & Infants Hospital of Rhode Island, priority 2011, dated 2018)
Oligonucleotides are written 5' to 3', each unit as a sugar letter and its base; * is a phosphorothioate linkage, no mark a phosphodiester; rarer units and linkages stand in square brackets, end groups in braces. Plain capitals give the bases only. Starred links: 1 amine or outer side, 2 acyl side, 3 side chain; linkers in the order of their positions; H or OH if unused. Positions of bridges follow the written chain, without caps; N, C: chain ends. Non-standard residues stand in square brackets, D forms with d. Residues, ends and D or L forms follow the SMILES beside them. Chains are numbered I, II in the order given. Actinocin(9to1) = Cc1c2oc3c(C)ccc(C(=O)[*:1])c3nc-2c(C(=O)[*:2])c(N)c1=O; NMeV = CN[C@H](C(=O)O)C(C)C; d = 2'-deoxy (DNA); Sar = CNCC(=O)O

How the values were obtained:
HE4 = HE4 levels in SKOV-3 cell lysates and media by sandwich ELISA; assay type: cell-based, Human; settings: for effect on HE4 levels in SKOV-3: cytotoxic agents, 24 hrs, serum free DMEM, versus untreated controls; for effect on HE4 levels in media or cell-lysate of SKOV-3 cells: growth factors and cytokines, 6 hours
Protocol: (§1) Various agents were examined by RT-PCR or by a sandwich ELISA. […] HE4 levels in cell lysates and media were evaluated by a sandwich ELISA.
Cells were grown for 24 h in 100 mm cell culture dishes (Corning, New York, N.Y.), supernatant collected and lysates of washed and scraped cells prepared as described previously (Lange T S et al., 2007Chem Biol Drug Design, 70:302-10). Total protein of lysates was quantitated (BioRad protein estimation kit, Hercules, Calif.), and HE4 levels were determined using the HE4 EIA assay (Fujirebio Diagnostics, Malvern, Pa.), a solid-phase, non-competitive immunoassay using two mouse monoclonal antibodies, directed against two epitopes in the C-WFDC domain. Calibration curves were used to measure HE4 concentrations in both cell lysates and culture media allowing for the calculation of production and secretion of HE4 in pmol/g total cellular protein.
FIG. 15 is a bar chart showing that treatment with growth factors and cytokines affect the HE4 levels in ovarian cancer cells. SKOV-3 cells (1 million each) were seeded in 100 mm dishes and incubated overnight. The cells were treated with an array of factors (IL-6, Insulin, TNFa, EGF) and incubated for another 6 hours. The media was collected and cells were lysed using the cell lysis buffer. The HE4 content in the media or in the cell-lysate was examined by a HE4 sandwich ELISA kit.

HE4 mRNA = HE4 mRNA expression in SKOV-3 cells by RT-PCR; assay type: cell-based, Human; settings: stimulation in serum free DMEM (TNF 10 nM, Insulin 100 nM, EGF 10 nM, IL-6 10 nM)
Protocol: as §1
Total RNA isolation from cells was carried out using TRIzol and Reverse transcription on 3 μg RNA using SuperScript III transcriptase according to the manufacturers protocol (Invitrogen, Carlsbad, Calif.) followed by 30 cycles of PCR using the following primer pairs: HE4 sense, 5′-AGG AGC AGA GAA GAC TGG-3′ (SEQ ID NO: 27); HE4 antisense, 5′-TTA TCA TTG GGC AGA GAG-3′ (SEQ ID NO: 28); GAPDH sense, 5′-AAT CCC ATC ACC ATC TTC C-3′ (SEQ ID NO: 29); GAPDH antisense, 5′-GTCCTTCCACGATACCAAAG-3′ (SEQ ID NO: 30). Cycle conditions: 94° C./1 min; 55° C./2 min, 72° C./2 min. PCR products were separated on 2% agarose gels containing 0.4 mg/ml of ethidium bromide.

SKOV-3 cells = assay: MTS cell viability assay, parental/wild-type SKOV-3 cells; assay type: cell-based, Human; settings: 24 h
Protocol: (§2) Cell growth and viability of cell lines (complete medium, 24 h incubation) was determined by the CellTiter 96® AQueous One Solution Assay (Promega Corp, Madison, Wis.) following the manufacturer's recommendations with modifications (Lange T S et al., 2008 PLOS One, 3(5):e2303). Experiments are expressed as the mean of triplicate determinations (X±SD) of a representative experiment in OD (cell growth) or % of absorbance by drug-treated versus untreated cells [=100%] (cell viability). Cisplatin (CDDP), paclitaxel, doxorubicin and camptothecin (CPT) were purchased from (Sigma Aldrich, St. Louis, Mo.).
(§3) To analyze the potential biological relevance of elevated HE4 production for ovarian cancer cells the efficacy of commonly used anticancer drugs was examined in a viability assay (FIG. 5). SKOV-3 clones or parental cells were treated with cisplatin, paclitaxel, doxorubicin, or camptothecin for 24 h in various concentrations as indicated and the cytotoxicity evaluated.

[1] = tested on: HE4 overexpressing SKOV-3 clones HE4C1, -C3, -C7; assay: MTS cell viability assay, HE4 overexpressing SKOV-3 clones; assay type: cell-based, Human; settings: 24 h; for viability at 20 µM: Homo sapiens, SK-OV-3, 24 h, 20 μM doxorubicin, untreated = 100%; for response of HE4 overexpressing SKOV-3 clones to drug treatment (viability, words): clones HE4C1, -C3, -C7, compared to parental SKOV-3
Protocol: An HE4 overexpressing vector for stable expression was engineered by inserting a coding sequence of human WAP four-disulfide core domain 2 (WFDC2) cDNA into a multiple cloning site of an eukaryotic expression vector, pCMV6-entry (Origene, Rockville, Md.). Transfection of the constructs in SKOV-3 cells was performed using Lipofectamine 2000 (Invitrogen, Carlsbad, Calif.) according to the manufacturer's instructions. Stably transfected cells were selected by resistance to G-418 (500 μg/ml) (Research Products International, Mount Prospect, Ill.), applied 48 h after transfection and continued during cell culture. G-418 resistant cells were resuspended (density 5 cells/ml) in complete medium/G-418 and seeded as 200 μl/well on a 96 well cell culture plate (Corning, New York, N.Y.). Cells growing from single colonies (cloned; stable transfection) were isolated.
as §2, §3

[2] = tested on: ovarian cancer (SKOV-3) cells xenograft; assay: Antisense HE4 oligos in ovarian cancer (SKOV-3) xenografted animals; assay type: in vivo, nude mice; settings: 7 mg/kg bwt, IP, 5 days/week; for effect on tumor progression / tumor burden: within 28 days, versus scrambled, sense oligos and vehicle
Protocol: Left: Effect of treatment of antisense HE4 oligos (“HE4 antisense 1” corresponds to SEQ ID NO:2 and “HE4 antisense 2” corresponds to SEQ ID NO:4; red and violet, respectively), sense HE4 oligos (green), vehicle, and scrambled sequences (7 mg/kg bwt, IP) 5 days/week on the tumor size in animals xenografted with ovarian cancer (SKOV-3) cells. Right: the weight of the animals treated with oligos progressed as the day progressed, and no toxicity was observed.
HE4 overexpression promoted ovarian cancer burden in animals (FIG. 24), and caused strong chemoresistance against cisplatin in animals (FIG. 26). Thus, a set of antisense oligos were designed to knockdown the expression levels of HE4 in animals xenografted with ovarian cancer (SKOV-3) cells. Treatment at 5 days/week with antisense HE4 phosphorothio oligos suppressed the tumor progression in animals compared to scrambled or sense HE4 oligos and vehicle treated control within 28 days of the treatment.

Cc1c2oc3c(C)ccc(C(=O)N[C@@H]4C(=O)N[C@H](C(C)C)C(=O)N5CCC[C@H]5C(=O)N(C)CC(=O)N(C)[C@@H](C(C)C)C(=O)O[C@@H]4C)c3nc-2c(C(=O)N[C@@H]2C(=O)N[C@H](C(C)C)C(=O)N3CCC[C@H]3C(=O)N(C)CC(=O)N(C)[C@@H](C(C)C)C(=O)O[C@@H]2C)c(N)c1=O [Actinomycin-D] (I: T[dV]P[Sar][NMeV] / II: T[dV]P[Sar][NMeV]; ester I:1-I:C, II:1-II:C; linker I:N-II:N via Actinocin(9to1)) was tested, and the “effect on HE4 levels in SKOV-3” value (HE4) was “suppressed HE4 levels”.

For Tunicamycin, the “effect on HE4 levels in SKOV-3” value (HE4) was “suppressed HE4 levels”.

With Insulin: growth factor the “effect on mRNA expression of HE4 in SKOV-3 cells” value (shortened to “effect on mRNA expression of HE4”) (HE4 mRNA) was “did not affect mRNA expression of HE4” and the “effect on HE4 levels in media or cell-lysate of SKOV-3 cells” value (“effect on HE4 levels … of SKOV-3 cells” for short) (HE4) was “elevate HE4 levels”.

COc1cccc2c1C(=O)c1c(O)c3c(c(O)c1C2=O)C[C@@](O)(C(=O)CO)C[C@@H]3O[C@H]1C[C@H](N)[C@H](O)[C@H](C)O1 [doxorubicin] gave a viability at 20 µM (SKOV-3 cells; Homo sapiens, SK-OV-3, wild-type SKOV-3, 20 μM doxorubicin, untreated = 100%) of 58%, a viability at 20 µM ([1]; HE4C1) of 70% and a viability at 20 µM ([1]; HE4C3) of 84%. It also gave a viability at 20 µM ([1]; HE4C7) of 91%.

With “5′ G*A*C*A*C*C*T*T*C*C*C*A*C*A*G*C*C*A*T*T*G 3′ [SEQ ID NO:2]” the “toxicity in animals (body weight)” value [2] was “did not cause any toxicity” and the “effect on tumor progression / tumor burden” value ([2]; listed as HE4 antisense 1) was “suppressed the progression of ovarian tumor growth”.

“EGF: epidermal growth factor (NSDSECPLSHDGYCLHDGVCMYIEALDKYACNCVVGYIGERCQYRDLKWWELR; UniProt P01133 971-1023, looked up)” was tested, and the “effect on mRNA expression of HE4” value (HE4 mRNA) was “did not affect mRNA expression of HE4” and the “effect on HE4 levels … of SKOV-3 cells” value (HE4) was “elevate HE4 levels”.

For IL-6: cytokine, the “effect on mRNA expression of HE4” value (HE4 mRNA) was “did not affect mRNA expression of HE4” and the “effect on HE4 levels … of SKOV-3 cells” value (HE4) was “suppresses the HE4 levels”.

In the case of “5′ G*A*C*A*C*C*T*T*C*C*C*A*C*A*G*C*C*A*T 3′ (DNA GACACCTTCCCACAGCCAT; DNA, all phosphorothioate, methylation of C not given here) [SEQ ID NO:3]”, the “effect on tumor progression / tumor burden” value [2] is reported as “showed tumor inhibitory activity”.

In the case of CC(=O)O[C@H]1C(=O)[C@@]2(C)[C@H]([C@H](OC(=O)c3ccccc3)[C@]3(O)C[C@H](OC(=O)[C@H](O)[C@@H](NC(=O)c4ccccc4)c4ccccc4)C(C)=C1C3(C)C)[C@]1(OC(C)=O)CO[C@@H]1C[C@@H]2O [paclitaxel], the “effect on viability of wild-type SKOV-3 cells” value (SKOV-3 cells; paclitaxel 6.25, 12.5 or 25 nM, cisplatin 40 or 80 μM) is reported as “reduced the viability of wild-type SKOV-3 cells drastically”, the “response of HE4 overexpressing SKOV-3 clones to drug treatment (viability, words)” value [1] is reported as “did not display a significantly altered viability” and the “response of HE4 overexpressing SKOV-3 clones to drug treatment (viability, words)” value ([1]; listed as Paclitaxel) is reported as “significantly reduced response”. For the same compound, the “effect on HE4 levels in SKOV-3” value (HE4) was “suppressed HE4 levels”.

For “5′ G*A*C*A*C*C*T*T*C*C*C*A*C*A*G*C*C*A*T*T 3′ (DNA dG*dA*dC*dA*dC*dC*dT*dT*dC*dC*dC*dA*dC*dA*dG*dC*dC*dA*dT*dT; antisense) [SEQ ID NO:1]”, the “effect on tumor progression / tumor burden” value [2] was “showed tumor inhibitory activity”.

For TNF-a, the “effect on mRNA expression of HE4” value (HE4 mRNA) was “did not affect mRNA expression of HE4” and the “effect on HE4 levels … of SKOV-3 cells” value (HE4) was “does not alter HE4 levels”.

For COc1cc2ncnc(Nc3ccc(F)c(Cl)c3)c2cc1OCCCN1CCOCC1 [Iressa], the “effect on HE4 levels in SKOV-3” value (HE4) was “suppressed HE4 levels”.

In the case of “5′ A*C*A*C*C*T*T*C*C*C*A*C*A*G*C*C*A*T*T 3′ (DNA ACACCTTCCCACAGCCATT; DNA, all phosphorothioate, methylation of C not given here) [SEQ ID NO:5]”, the “effect on tumor progression / tumor burden” value [2] is reported as “showed tumor inhibitory activity”.

In the case of CC[C@@]1(O)C(=O)OCc2c1cc1n(c2=O)Cc2cc3ccccc3nc2-1 [camptothecin], the “maximum difference in viability between wild-type cells and HE4C1, -3, -7” value ([1]; camptothecin, at 1.2 μM) is reported as at most 21%.

“5′ A*C*A*C*C*T*T*C*C*C*A*C*A*G*C*C*A*T*T*G 3′ [SEQ ID NO:4]” was tested, and the “toxicity in animals (body weight)” value [2] was “did not cause any toxicity”, the “effect on tumor progression / tumor burden” value [2] was “strong reduction in tumor burden” and the “effect on tumor progression / tumor burden” value ([2]; listed as HE4 antisense 2) was “suppressed the progression of ovarian tumor growth”.

For C=C1/C(=C\C=C2/CCC[C@]3(C)[C@@H]([C@H](C)CCCC(C)(C)O)CC[C@@H]23)C[C@@H](O)C[C@@H]1O [Calcitriol], the “effect on HE4 levels in SKOV-3” value (HE4) was “upregulated HE4 expression”.
